Tests used:
[1] = system: alcohol dehydrogenase (Saccharomyces cerevisiae); assay: Compound was tested for enantioselectivity of alcohol dehydrogenase in yeast at a concentration of 100 ug/mL.
[2] = system: alcohol dehydrogenase (Thermoanaerobacter brockii); assay: Compound was tested for enantioselectivity of alcohol dehydrogenase in thermoanaerobium brockii at a concentration of 5 ug/mL.
[3] = system: alcohol dehydrogenase (Lactobacillus kefiri); assay: Compound was tested for enantioselectivity of alcohol dehydrogenase in lactobacillus kefir at a concentration of 50 ug/mL.
[4] = molecular target: Alcohol dehydrogenase (Equus caballus) (UniProt P00327+P00328); assay: Compound was tested for enantioselectivity of alcohol dehydrogenase in horse liver at a concentration of 10 ug/mL.
[5] = Rate constant of the bovine serum albumin catalyzed reaction of the compound; assay type: ADME, Bos taurus; details: cattle
[6] = Specificity constant of the bovine serum albumin catalyzed reaction expressed as (kcat/KM)/kuncat; assay type: ADME, Bos taurus; details: cattle
[7] = Michaelis-Menten kinetics of the bovine serum albumin catalyzed reaction of the compound; assay type: ADME, Bos taurus; details: cattle
[8] = Half life in presence of 2 mg/mL BSA at pH 8.8; assay type: ADME, Bos taurus; details: cattle, bovine serum albumin solution
[9] = Specificity constant of the BSA-catalyzed deprotonation of compound at pH 9; assay type: ADME, Bos taurus; details: cattle

Row | Selectivity [1] [µM/s] | Selectivity [2] [µM/s] | Selectivity [3] [µM/s] | Selectivity [4] [µM/s] | k cat [5] [s⁻¹] | k cat/Kuncat [5] | (kcat/KM)/kuncat [6] [M⁻¹] | Km [7] [µM] | half-life [8] [min] | SMILES | (kcat/KM)/kuncat [9] [M⁻¹]
1 | 3.31e-06 | 6.61e-06 | 0.000773 | 0.00014 |  |  |  |  |  | C[C@@H](O)CCOc1ccc2ccc(=O)oc2c1 | 
2 |  |  |  |  | 0.0078 | 390 | 2600000 | 150 | 4 | CC(=O)CCOc1ccc2ccc(=O)oc2c1 | 
3 | 0.000599 | 0.00132 | 2.67e-05 | 0.00246 |  |  |  |  |  | C[C@H](O)CCOc1ccc2ccc(=O)oc2c1 | 
4 |  |  |  |  |  |  |  |  |  | c1cnoc1 [ISOXAZOLE] | 3600000
